A value given as a limit tells only on which side of the number the result lay.

For the experiment, the system named is ATF4 luciferase reporter in HEK293T cells. Put plainly: ATF4-Luc assay (ATF4 luciferase reporter, tunicamycin-treated HEK293T cells). The experiment is classed as cell-based, human. To be noted: Homo sapiens, HEK-293T; HEK293T cells carrying the ATF4 luciferase reporter, 1 μg/mL tunicamycin, 7 hours. In general terms: A reporter such as luciferase makes a cellular process visible.
As for `CC(=O)c1ccc(OCC(=O)NC23CCC(NC(=O)COc4ccc(Cl)c(F)c4)(CC2)C[C@@H]3O)cc1` [Compound 511, 2-(4-acetylphenoxy)-N-{(2S)-4-[2-(4-chloro-3-fluorophenoxy)acetamido]-2-hydroxybicyclo[2.2.2]octan-1-yl}acetamide], the EC50 (in general, the concentration needed to bring the measured effect to its halfway point) is 10 to 50 nM. `O=C(COc1ccc(Cl)c(F)c1)NC12CCC(NC(=O)COc3nc4ccccc4s3)(CC1)[C@@H](O)C2` [Compound 512, 2-[(1,3-benzothiazol-2-yl)oxy]-N-{(2S)-4-[2-(4-chloro-3-fluorophenoxy)acetamido]-2-hydroxybicyclo[2.2.2]octan-1-yl}acetamide]: the concentration for a half-maximal effect (EC50) is greater than 2000 nM. In the case of `O=C(COc1ccc(Cl)c(F)c1)NC12CCC(NC(=O)COc3cc(-c4ccccc4)n(-c4ccccc4)n3)(CC1)[C@@H](O)C2` [Compound 513, 2-(4-chloro-3-fluorophenoxy)-N-[(3S)-4-{2-[(1,5-diphenyl-1H-pyrazol-3-yl)oxy]acetamido}-3-hydroxybicyclo[2.2.2]octan-1-yl]acetamide], the EC50 is greater than 2000 nM. Regarding `O=C(COc1ccc(Cl)c(F)c1)NC12CCC(NC(=O)COc3ncnc4sccc34)(CC1)[C@@H](O)C2` [Compound 514, 2-(4-chloro-3-fluorophenoxy)-N-[(3S)-3-hydroxy-4-{2-[(thieno[2,3-d]pyrimidin-4-yl)oxy]acetamido}bicyclo[2.2.2]octan-1-yl]acetamide], the EC50 lay within 10 to 50 nM. Regarding `O=C(COc1ccc(Cl)c(F)c1)NC12CCC(NC(=O)COc3noc4ccccc34)(CC1)[C@@H](O)C2` [Compound 515, 2-[(1,2-benzoxazol-3-yl)oxy]-N-{(2S)-4-[2-(4-chloro-3-fluorophenoxy)acetamido]-2-hydroxybicyclo[2.2.2]octan-1-yl}acetamide], the EC50 was less than 10 nM.

For the molecule `O=C(COc1ccc(Cl)c(F)c1)NC12CCC(NC(=O)COc3ncn(-c4ccc(Cl)cc4)n3)(CC1)[C@@H](O)C2` [Compound 516, 2-(4-chloro-3-fluorophenoxy)-N-[(3S)-4-(2-{[1-(4-chlorophenyl)-1H-1,2,4-triazol-3-yl]oxy}acetamido)-3-hydroxybicyclo[2.2.2]octan-1-yl]acetamide], the EC50 is greater than 2000 nM.

For `O=C(COc1ccc(Cl)c(F)c1)NC12CCC(NC(=O)COc3ccc4ccccc4c3)(CC1)[C@@H](O)C2` [Compound 517, 2-(4-chloro-3-fluorophenoxy)-N-[(3S)-3-hydroxy-4-{2-[(naphthalen-2-yl)oxy]acetamido}bicyclo[2.2.2]octan-1-yl]acetamide], the EC50 was less than 10 nM.

On to `O=C(COc1ccc(Cl)c(F)c1)NC12CCC(NC(=O)COc3ccc(Cl)nn3)(CC1)[C@@H](O)C2` [Compound 518, 2-(4-chloro-3-fluorophenoxy)-N-[(3S)-4-{2-[(6-chloropyridazin-3-yl)oxy]acetamido}-3-hydroxybicyclo[2.2.2]octan-1-yl]acetamide], for which the EC50 is 10 to 50 nM. As to `COC(=O)c1cc(OCC(=O)NC23CCC(NC(=O)COc4ccc(Cl)c(F)c4)(CC2)C[C@@H]3O)no1` [Compound 519, methyl 3-[2-({(2S)-4-[2-(4-chloro-3-fluorophenoxy)acetamido]-2-hydroxybicyclo[2.2.2]octan-1-yl}amino)-2-oxoethoxy]-1,2-oxazole-5-carboxylate], the EC50 was greater than 2000 nM. On to `Cc1cc(OCC(=O)NC23CCC(NC(=O)COc4ccc(Cl)c(F)c4)(CC2)C[C@@H]3O)c2ccccc2n1` [Compound 520, 2-(4-chloro-3-fluorophenoxy)-N-[(3S)-3-hydroxy-4-{2-[(2-methylquinolin-4-yl)oxy]acetamido}bicyclo[2.2.2]octan-1-yl]acetamide], for which the EC50 lay in the range of 10 to 50 nM. Turning to `Cc1ccc(OCC(=O)NC23CCC(NC(=O)COc4ccc(Cl)c(F)c4)(CC2)C[C@@H]3O)cc1` [Compound 521, 2-(4-chloro-3-fluorophenoxy)-N-{(3S)-3-hydroxy-4-[2-(4-methylphenoxy)acetamido]bicyclo[2.2.2]octan-1-yl}acetamide], the EC50 was less than 10 nM.

As to `CCCS(=O)(=O)c1ccc(OCC(=O)NC23CCC(NC(=O)COc4ccc(Cl)c(F)c4)(CC2)C[C@@H]3O)cc1` [Compound 522, 2-(4-chloro-3-fluorophenoxy)-N-[(3S)-3-hydroxy-4-{2-[4-(propane-1-sulfonyl)phenoxy]acetamido}bicyclo[2.2.2]octan-1-yl]acetamide], the EC50 is greater than 2000 nM.

In the case of `O=C(COc1ccc(Cl)c(F)c1)NC12CCC(NC(=O)COc3nc(N4CCCCC4)nc(N4CCCCC4)n3)(CC1)[C@@H](O)C2` [Compound 523, 2-(4-chloro-3-fluorophenoxy)-N-[(3S)-4-(2-{[4,6-di(piperidin-1-yl)-1,3,5-triazin-2-yl]oxy}acetamido)-3-hydroxybicyclo[2.2.2]octan-1-yl]acetamide], the EC50 is greater than 2000 nM. In the case of `CC(=O)c1ccc(OCC(=O)NC23CCC(NC(=O)COc4ccc(Cl)c(F)c4)(CC2)[C@@H](O)C3)cc1` [Compound 524, 2-(4-acetylphenoxy)-N-{(3S)-4-[2-(4-chloro-3-fluorophenoxy)acetamido]-3-hydroxybicyclo[2.2.2]octan-1-yl}acetamide], the EC50 lay in the range of 10 to 50 nM. Regarding `Cc1cc(OCC(=O)NC23CCC(NC(=O)COc4ccc(Cl)c(C)c4)(CC2)[C@@H](O)C3)ccc1Cl` [Compound 525, N,N′-[(2S)-2-hydroxybicyclo[2.2.2]octane-1,4-diyl]bis[2-(4-chloro-3-methylphenoxy)acetamide]], the EC50 was less than 10 nM. For `O=C(COc1ccc(Cl)c(Cl)c1)NC12CCC(NC(=O)COc3ccc(Cl)c(Cl)c3)(CC1)C2` [Compound 526, N,N′-(bicyclo[2.2.1]heptane-1,4-diyl)bis[2-(3,4-dichlorophenoxy)acetamide]], the EC50 lay within 10 to 50 nM. Next, `O=C(COc1ccc(Cl)cc1)NC12CCC(NC(=O)COc3ccc(Cl)cc3)(CC1)C2` [Compound 527, N,N′-(bicyclo[2.2.1]heptane-1,4-diyl)bis[2-(4-chlorophenoxy)acetamide]]: 10 to 50 nM. Next, `COc1cc(OCC(=O)NC23CCC(NC(=O)COc4ccc(Cl)c(F)c4)(CC2)C[C@@H]3O)ccc1Cl` [Compound 528, 2-(4-chloro-3-fluorophenoxy)-N-{(3S)-4-[2-(4-chloro-3-methoxyphenoxy)acetamido]-3-hydroxybicyclo[2.2.2]octan-1-yl}acetamide]: less than 10 nM. For `O=C(COc1ccc(C(F)(F)F)nc1)NC12CCC(NC(=O)COc3ccc(C(F)(F)F)nc3)(CC1)C2` [Compound 530, N,N′-(bicyclo[2.2.1]heptane-1,4-diyl)bis(2-{[6-(trifluoromethyl)pyridin-3-yl]oxy}acetamide)], the concentration for a half-maximal effect (EC50) lay in the range of 500 to 2000 nM. With `O=C(COc1ccc2c(c1)OC(F)(F)O2)NC12CCC(NC(=O)COc3ccc4c(c3)OC(F)(F)O4)(CC1)C2` [Compound 531, N,N′-(bicyclo[2.2.1]heptane-1,4-diyl)bis{2-[(2,2-difluoro-2H-1,3-benzodioxol-5-yl)oxy]acetamide}], the EC50 is 250 to 500 nM.

Consider `O=C(COc1ccc(F)cc1)NC12CC(NC(=O)COc3ccc(Cl)c(Cl)c3)(C1)C2` [Compound 532, 2-(3,4-dichlorophenoxy)-N-{3-[2-(4-fluorophenoxy)acetamido]bicyclo[1.1.1]pentan-1-yl}acetamide], for which the EC50 is less than 10 nM.

In the case of `O=C(COc1ccc(F)c(Cl)c1)NC12CC(NC(=O)COc3ccc(Cl)c(Cl)c3)(C1)C2` [Compound 533, 2-(3-chloro-4-fluorophenoxy)-N-{3-[2-(3,4-dichlorophenoxy)acetamido]bicyclo[1.1.1]pentan-1-yl}acetamide], the EC50 was less than 10 nM. Regarding `O=C(COc1ccc(Cl)c(F)c1)NC12CC(NC(=O)COc3ccc(F)c(Cl)c3)(C1)C2` [Compound 534, 2-(4-chloro-3-fluorophenoxy)-N-{3-[2-(3-chloro-4-fluorophenoxy)acetamido]bicyclo[1.1.1]pentan-1-yl}acetamide], the EC50 is less than 10 nM.

As for `O=C(COc1ccc(Cl)c(F)c1)NC12CCC(NC(=O)COc3ccc(F)c(Cl)c3)(C1)C2` [Compound 535, 2-(3-chloro-4-fluorophenoxy)-N-{4-[2-(4-chloro-3-fluorophenoxy)acetamido]bicyclo[2.1.1]hexan-1-yl}acetamide], the EC50 was in the range of 10 to 50 nM. Take `O=C(COc1ccc(C(F)(F)F)cc1)NC12CCC(NC(=O)COc3ccc(C(F)(F)F)cc3)(CC1)[C@@H](O)C2` [Compound 536, N,N′-[(2S)-2-hydroxybicyclo[2.2.2]octane-1,4-diyl]bis{2-[4-(trifluoromethyl)phenoxy]acetamide}]: the half-maximal effective concentration (EC50) was less than 10 nM.

Turning to `O=C(COc1ccc(Cl)c(F)c1)NC12CCC(NC(=O)COc3ccc(C(F)F)cc3)(CC1)[C@@H](O)C2` [Compound 537, 2-(4-chloro-3-fluorophenoxy)-N-[(3S)-4-{2-[4-(difluoromethyl)phenoxy]acetamido}-3-hydroxybicyclo[2.2.2]octan-1-yl]acetamide], the EC50 is less than 10 nM. With `O=C(COc1ccc(Cl)c(Cl)c1)NC12CCC(NC(=O)COc3ccc(Cl)c(Cl)c3)(CC1)[C@@H](O)C2` [Compound 538, N,N′-[(2S)-2-hydroxybicyclo[2.2.2]octane-1,4-diyl]bis[2-(3,4-dichlorophenoxy)acetamide]], the EC50 was less than 10 nM. As to `O=C(COc1ccc(C(F)F)cc1)NC12CCC(NC(=O)COc3ccc(Cl)c(F)c3)(CC1)[C@@H](O)C2` [Compound 539, 2-(4-chloro-3-fluorophenoxy)-N-[(2S)-4-{2-[4-(difluoromethyl)phenoxy]acetamido}-2-hydroxybicyclo[2.2.2]octan-1-yl]acetamide], the EC50 was less than 10 nM.

For the molecule `O=C(COc1ccc(Cl)cc1)NC12CCC(NC(=O)COc3ccc(Cl)cc3)(CC1)[C@@H](O)C2` [Compound 540, N,N′-[(2S)-2-hydroxybicyclo[2.2.2]octane-1,4-diyl]bis[2-(4-chlorophenoxy)acetamide]], the EC50 is less than 10 nM. `O=C(COc1ccc(C(F)(F)F)nc1)NC12CCC(NC(=O)COc3ccc(C(F)(F)F)nc3)(CC1)[C@@H](O)C2` [Compound 541, N,N′-[(2S)-2-hydroxybicyclo[2.2.2]octane-1,4-diyl]bis(2-{[6-(trifluoromethyl)pyridin-3-yl]oxy}acetamide)]: the EC50 was in the range of 10 to 50 nM.

Source of the values: US20240166652A1, “MODULATORS OF THE INTEGRATED STRESS PATHWAY” (Calico Life Sciences LLC, priority 2017, published 2024).
